Data published in patent publication US8278345B2, “Inhibitors of glutaminyl cyclase” (Probiodrug AG, priority 2006, dated 2012).

target: hQC (Homo sapiens, UniProt Q16769); assay: Inhibitor assay for glutaminyl cyclase activity (fluorometric, H-Gln-βNA / H-Gln-AMC); assay type: biochemical; conditions: compound from preparative synthesis, purified; read-out: IC50 hQC
Summary of the method: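 Coupled fluorometric assay at 30 °C with pyroglutamyl aminopeptidase, in Tris/HCl pH 8.0 with EDTA, substrate H-Gln-βNA (0.2 mM; ex/em 320/410 nm) or H-Gln-AMC (ex/em 380/460 nm), initiated by QC. Screening: 4 mM inhibitor, substrate at 1 KM; Ki from progress curves fitted to competitive inhibition.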

Sequence of hQC (Q16769 29-361): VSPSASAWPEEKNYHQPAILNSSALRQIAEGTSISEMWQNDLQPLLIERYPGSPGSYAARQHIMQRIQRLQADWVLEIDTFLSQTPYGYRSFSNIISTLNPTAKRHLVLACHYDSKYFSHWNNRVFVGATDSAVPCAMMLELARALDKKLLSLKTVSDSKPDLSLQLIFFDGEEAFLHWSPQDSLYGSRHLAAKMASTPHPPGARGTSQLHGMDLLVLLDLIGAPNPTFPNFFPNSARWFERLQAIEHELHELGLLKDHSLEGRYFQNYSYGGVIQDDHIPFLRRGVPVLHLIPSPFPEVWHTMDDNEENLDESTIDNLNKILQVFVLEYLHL

| IC50 [nM] | SMILES |
| --- | --- |
| 1040 | O=C1C(O)=C(c2c[nH]c3ccccc23)C(c2ccccc2F)N1CCCn1ccnc1 (stereo not drawn) [Compound 144, 5-(2-Fluoro-phenyl)-3-hydroxy-1-(3-imidazol-1-yl-propyl)-4-(1H-indol-3-yl)-1,5-dihydro-pyrrol-2-one] |
| 22.5 | O=C1C(O)=C(c2cccc(O)c2)C(c2ccc3nsnc3c2)N1c1ccc2[nH]cnc2c1 (stereo not drawn) [Compound 269, 1-(1H-Benzoimidazol-5-yl)-5-benzo[c][1,2,5]thiadiazol-5-yl-3-hydroxy-4-(3-hydroxy-phenyl)-1,5-dihydro-pyrrol-2-one] |

same assay, conditions: read-out: IC50

| SMILES | IC50 [nM] |
| --- | --- |
| CC1=C(O)C(=O)N(CCCn2ccnc2)C1c1c[nH]c2cc(C)ccc12 (stereo not drawn) [Compound 37, 3-Hydroxy-1-(3-imidazol-1-yl-propyl)-4-methyl-5-(6-methyl-1H-indol-3-yl)-1,5-dihydro-pyrrol-2-one] | 400 |
| O=C1C(O)=C(c2c[nH]c3ccccc23)C(c2ccc3[nH]ccc3c2)N1CCCn1ccnc1 (stereo not drawn) [Compound 120, 3-Hydroxy-1-(3-imidazol-1-yl-propyl)-5-(1H-indol-5-yl)-4-(1H-indol-3-yl)-1,5-dihydro-pyrrol-2-one] | 40 |
| CCC1=C(O)C(=O)N(CCCn2ccnc2)C1c1ccncc1 (stereo not drawn) [Compound 244, 4-Ethyl-3-hydroxy-1-(3-imidazol-1-yl-propyl)-5-pyridin-4-yl-1,5-dihydro-pyrrol-2-one] | 400 |
| O=C1C(O)=C(c2ccccc2)C(c2ncc[nH]2)N1CCCn1ccnc1 (stereo not drawn) [Compound 98, 3-Hydroxy-5-(1H-imidazol-2-yl)-1-(3-imidazol-1-yl-propyl)-4-phenyl-1,5-dihydro-pyrrol-2-one] | 1300 |
| CCCCCC1=C(O)C(=O)N(CCCn2ccnc2)C1/C=C/C(C)C (stereo not drawn) [Compound 190, 3-Hydroxy-1-(3-imidazol-1-yl-propyl)-5-(3-methyl-but-1-enyl)-4-pentyl-1,5-dihydro-pyrrol-2-one] | 400 |
| CC(=O)C1=C(O)C(=O)N(c2ccc3[nH]cnc3c2)C1C1CC=CCC1 (stereo not drawn) [Compound 375, 4-Acetyl-1-(1H-benzoimidazol-5-yl)-5-cyclohex-3-enyl-3-hydroxy-1,5-dihydro-pyrrol-2-one] | 9580 |
| O=C1C(O)=C(c2c[nH]c3ccccc23)C(c2ccc(O)c(Br)c2)N1c1ccc2[nH]cnc2c1 (stereo not drawn) [Compound 438, 1-(1H-Benzoimidazol-5-yl)-5-(3-bromo-4-hydroxy-phenyl)-3-hydroxy-4-(1H-indol-3-yl)-1,5-dihydro-pyrrol-2-one] | 580 |
| CCCCCC1C(C(C)C)=C(O)C(=O)N1CCCn1ccnc1 (stereo not drawn) [Compound 62, 3-Hydroxy-1-(3-imidazol-1-yl-propyl)-4-isopropyl-5-pentyl-1,5-dihydro-pyrrol-2-one] | 40 |
| Cc1ccc(C2C(c3cccc(O)c3)=C(O)C(=O)N2CCCn2ccnc2)o1 (stereo not drawn) [Compound 11, 3-Hydroxy-4-(3-hydroxy-phenyl)-1-(3-imidazol-1-yl-propyl)-5-(5-methyl-furan-2-yl)-1,5-dihydro-pyrrol-2-one] | 2200 |
| O=C1C(O)=C(c2c[nH]c3ccccc23)C(c2ccccc2F)N1CCCn1ccnc1 (stereo not drawn) [Compound 144, 5-(2-Fluoro-phenyl)-3-hydroxy-1-(3-imidazol-1-yl-propyl)-4-(1H-indol-3-yl)-1,5-dihydro-pyrrol-2-one] | 40 |
| CC(C)C1=C(O)C(=O)N(c2ccc3[nH]cnc3c2)C1c1csc2ccccc12 (stereo not drawn) [Compound 275, 5-Benzo[b]thiophen-3-yl-1-(1H-benzoimidazol-5-yl)-3-hydroxy-4-isopropyl-1,5-dihydro-pyrrol-2-one] | 6070 |
| CC1=C(O)C(=O)N(c2ccc3[nH]cnc3c2)C1c1csc2ccccc12 (stereo not drawn) [Compound 347, 5-Benzo[b]thiophen-3-yl-1-(1H-benzoimidazol-5-yl)-3-hydroxy-4-methyl-1,5-dihydro-pyrrol-2-one] | 3100 |
| O=C1C(O)=C(c2cccc(O)c2)C(c2ccccc2O)N1CCCn1ccnc1 (stereo not drawn) [Compound 14, 3-Hydroxy-5-(2-hydroxy-phenyl)-4-(3-hydroxy-phenyl)-1-(3-imidazol-1-yl-propyl)-1,5-dihydro-pyrrol-2-one] | 2200 |
| CCCCCC1=C(O)C(=O)N(CCCn2ccnc2)C1C1=CCCCC1 (stereo not drawn) [Compound 201, 5-Cyclohex-1-enyl-3-hydroxy-1-(3-imidazol-1-yl-propyl)-4-pentyl-1,5-dihydro-pyrrol-2-one] | 1300 |
| CCC1=C(O)C(=O)N(CCCn2ccnc2)C1c1ccccn1 (stereo not drawn) [Compound 243, 4-Ethyl-3-hydroxy-1-(3-imidazol-1-yl-propyl)-5-pyridin-2-yl-1,5-dihydro-pyrrol-2-one] | 400 |
| CCCC1C(CC)=C(O)C(=O)N1CCCn1ccnc1 (stereo not drawn) [Compound 223, 4-Ethyl-3-hydroxy-1-(3-imidazol-1-yl-propyl)-5-propyl-1,5-dihydro-pyrrol-2-one] | 2200 |
| Cc1ccc2c(C3C(C(=O)C4CC4)=C(O)C(=O)N3c3ccc4[nH]cnc4c3)c[nH]c2c1 (stereo not drawn) [Compound 453, 1-(1H-Benzoimidazol-5-yl)-4-cyclopropanecarbonyl-3-hydroxy-5-(6-methyl-1H-indol-3-yl)-1,5-dihydro-pyrrol-2-one] | 7420 |
| CC1=C(O)C(=O)N(CCCn2ccnc2)C1C(F)(F)F (stereo not drawn) [Compound 38, 3-Hydroxy-1-(3-imidazol-1-yl-propyl)-4-methyl-5-trifluoromethyl-1,5-dihydro-pyrrol-2-one] | 2200 |
| O=C1C(O)=C(c2c[nH]c3ccccc23)C(C(O)CO)N1CCCn1ccnc1 (stereo not drawn) [Compound 117, 5-(1,2-Dihydroxy-ethyl)-3-hydroxy-1-(3-imidazol-1-yl-propyl)-4-(1H-indol-3-yl)-1,5-dihydro-pyrrol-2-one] | 400 |
| CCCCCC1=C(O)C(=O)N(CCCn2ccnc2)C1C(C)CC (stereo not drawn) [Compound 186, 5-sec-Butyl-3-hydroxy-1-(3-imidazol-1-yl-propyl)-4-pentyl-1,5-dihydro-pyrrol-2-one] | 400 |
| CC1C(c2c[nH]c3ccccc23)=C(O)C(=O)N1CCCn1ccnc1 (stereo not drawn) [Compound 125, 3-Hydroxy-1-(3-imidazol-1-yl-propyl)-4-(1H-indol-3-yl)-5-methyl-1,5-dihydro-pyrrol-2-one] | 400 |
| CCCCCC1=C(O)C(=O)N(CCCn2ccnc2)C1c1cc(Cl)cc(Cl)c1O (stereo not drawn) [Compound 183, 5-(3,5-Dichloro-2-hydroxy-phenyl)-3-hydroxy-1-(3-imidazol-1-yl-propyl)-4-pentyl-1,5-dihydro-pyrrol-2-one] | 40 |
| CCC1=C(O)C(=O)N(CCCn2ccnc2)C1C(O)CO (stereo not drawn) [Compound 225, 5-(1,2-Dihydroxy-ethyl)-4-ethyl-3-hydroxy-1-(3-imidazol-1-yl-propyl)-1,5-dihydro-pyrrol-2-one] | 40 |

Now from value to compound:

| IC50 [nM] | SMILES |
| --- | --- |
| 6340 | CC(C)(C)C(=O)C1=C(O)C(=O)N(c2ccc3[nH]cnc3c2)C1c1nccs1 (stereo not drawn) [Compound 402, 1-(1H-Benzoimidazol-5-yl)-4-(2,2-dimethyl-propionyl)-3-hydroxy-5-thiazol-2-yl-1,5-dihydro-pyrrol-2-one] |
| 1300 | CCC/C=C/C1C(CCCCC)=C(O)C(=O)N1CCCn1ccnc1 (stereo not drawn) [Compound 185, 3-Hydroxy-1-(3-imidazol-1-yl-propyl)-5-(pent-1-enyl)-4-pentyl-1,5-dihydro-pyrrol-2-one] |
| 400 | O=C1C(O)=C(c2c[nH]c3ccccc23)C(c2c[nH]c3ccccc23)N1CCCn1ccnc1 (stereo not drawn) [Compound 132, 3-Hydroxy-1-(3-imidazol-1-yl-propyl)-4,5-bis-(1H-indol-3-yl)-1,5-dihydro-pyrrol-2-one] |
| 4900 | CC1=C(O)C(=O)N(CCCn2ccnc2)C1c1ccc(C)o1 (stereo not drawn) [Compound 25, 3-Hydroxy-1-(3-imidazol-1-yl-propyl)-4-methyl-5-(5-methyl-furan-2-yl)-1,5-dihydro-pyrrol-2-one] |
| 310 | CC1=C(O)C(=O)N(c2ccc3[nH]cnc3c2)C1c1coc2ccc(C)cc2c1=O (stereo not drawn) [Compound 328, 1-(1H-Benzoimidazol-5-yl)-3-hydroxy-4-methyl-5-(6-methyl-4-oxo-4H-chromen-3-yl)-1,5-dihydro-pyrrol-2-one] |
| 3010 | CC(C)(C)C(=O)C1=C(O)C(=O)N(c2ccc3[nH]cnc3c2)C1c1ccc(-c2ccccn2)cc1 (stereo not drawn) [Compound 401, 1-(1H-Benzoimidazol-5-yl)-4-(2,2-dimethyl-propionyl)-3-hydroxy-5-(4-pyridin-2-yl-phenyl)-1,5-dihydro-pyrrol-2-one] |
| 850 | CCCC(=O)C1=C(O)C(=O)N(c2ccc3[nH]cnc3c2)C1c1ccsc1 (stereo not drawn) [Compound 424, 1-(1H-Benzoimidazol-5-yl)-4-butyryl-3-hydroxy-5-thiophen-3-yl-1,5-dihydro-pyrrol-2-one] |
| 40 | O=C1C(O)=C(c2ccccc2)C(c2ccc3cccc(O)c3n2)N1c1ccc2[nH]cnc2c1 (stereo not drawn) [Compound 398, 1-(1H-Benzoimidazol-5-yl)-3-hydroxy-5-(8-hydroxy-quinolin-2-yl)-4-phenyl-1,5-dihydro-pyrrol-2-one] |
| 7150 | Cc1ccc(O)c(C2C(c3ccc(O)cc3)=C(O)C(=O)N2c2ccc3[nH]cnc3c2)c1 (stereo not drawn) [Compound 284, 1-(1H-Benzoimidazol-5-yl)-3-hydroxy-5-(2-hydroxy-5-methyl-phenyl)-4-(4-hydroxy-phenyl)-1,5-dihydro-pyrrol-2-one] |
| 2200 | CC(C)C1=C(O)C(=O)N(CCCn2ccnc2)C1C1CCC=CO1 (stereo not drawn) [Compound 66, 5-(3,4-Dihydro-2H-pyran-2-yl)-3-hydroxy-1-(3-imidazol-1-yl-propyl)-4-isopropyl-1,5-dihydro-pyrrol-2-one] |
| 4 | O=C1C(O)=C(c2cccc(O)c2)C(c2ccc3nsnc3c2)N1c1ccc2[nH]cnc2c1 (stereo not drawn) [Compound 269, 1-(1H-Benzoimidazol-5-yl)-5-benzo[c][1,2,5]thiadiazol-5-yl-3-hydroxy-4-(3-hydroxy-phenyl)-1,5-dihydro-pyrrol-2-one] |
| 40 | CCCCCC1=C(O)C(=O)N(CCCn2ccnc2)C1c1ccc(CO)o1 (stereo not drawn) [Compound 198, 3-Hydroxy-5-(5-hydroxymethyl-furan-2-yl)-1-(3-imidazol-1-yl-propyl)-4-pentyl-1,5-dihydro-pyrrol-2-one] |
| 1300 | Cc1ccc(C2C(c3ccccc3)=C(O)C(=O)N2CCCn2ccnc2)cc1C (stereo not drawn) [Compound 88, 5-(3,4-Dimethyl-phenyl)-3-hydroxy-1-(3-imidazol-1-yl-propyl)-4-phenyl-1,5-dihydro-pyrrol-2-one] |
| 3100 | O=C1C(O)=C(c2ccccc2)C(c2cc[nH]n2)N1CCCn1ccnc1 (stereo not drawn) [Compound 81, 3-Hydroxy-1-(3-imidazol-1-yl-propyl)-4-phenyl-5-(1H-pyrazol-3-yl)-1,5-dihydro-pyrrol-2-one] |
